# Values quoted from earlier work in patent US6342486B1, “Polymer glucan ether derivatives, their manufacturing as well as their use” (Mibelle AG Cosmetics, priority 1996, dated 2002).
# Details: isolated glucan from yeast cells
substance,measurement,value
"1,3-beta-polyglucose [glucan]",solubility in aqueous systems,extremely low solubility
